The record followed here is PubChem BioAssay (NCI).

Structures are written as SMILES.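 Exposure lasted 48 hours, with cells grown in 96-well plates and compounds tested at five concentrations. At the TGI there is no net growth.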

What all share (assay): growth of human tumour cells (NCI), 48 h
For assay [1], the system named is HCT-116 colon.
The subject of assay [2] is MDA-MB-435.
Assay [3] concerns HT29 colon.
In assay [4] the test system is SF-295 CNS.
In assay [5] the test system is HS 578T breast.
In assay [6] the test system is KM12 colon.
Assay [7] relates to TK-10 renal.
The subject of assay [8] is HCT-15 colon.
Assay [9] concerns OVCAR-5 ovarian.
In assay [10] the test system is NCI/ADR-RES ovarian.

For the molecule `CC1(COS(=O)(=O)OCC2(C)COS(=O)(=O)OC2)COS(=O)(=O)OC1`, the TGI was above 100 µM in [1]; above 78.4 µM in [2]; above 69.6 µM in assay [3]; above 100 µM in [4]; above 100 µM in assay [5]; above 77.3 µM in assay [6]. Further, the TGI in assay [7], in assay [8], in assay [9] and in assay [10] was above 100 µM each time.

For `COc1ccc(/C=C2\N=C(c3ccccc3)N(C3Nc4cc5c(cc4S3)NC(N3C(=O)/C(=C/c4ccc(OC)cc4)N=C3c3ccccc3)S5)C2=O)cc1` (stereo not given), the TGI in assay [1], in [2], in [3], in [4], in [5] and in [6] was above 100 µM throughout. The TGI is above 100 µM in assay [7], above 100 µM in assay [8], above 100 µM in assay [9] and 48 µM in [10].

For `CC(=O)c1cc2ccccc2n(O)c1=N`, the TGI in [1], in assay [2], in [3], in assay [4], in [5] and in assay [6] was above 100 µM each time. The TGI in assay [7], in assay [8], in assay [9] and in assay [10] was above 100 µM in each case.

Turning to `CC(C)OP(=O)(OC(C)C)C(C(C)C)N(C)/C(F)=N/C(F)(F)F` (stereo not given), the TGI in assay [1], in assay [2], in assay [3], in assay [4], in assay [5] and in assay [6] was above 100 µM in each case. For the same molecule, the TGI in [7], in [8], in assay [9] and in assay [10] was above 100 µM throughout.

On to `O=c1[nH]c2cc3[nH]c4ncccc4c(=O)c3cc2[nH]1`, for which the TGI in [1], in assay [2], in assay [3], in [4], in [5] and in assay [6] was above 10 µM each time. Also, the TGI in assay [7], in assay [8], in assay [9] and in [10] was above 10 µM in each case.
